# From ChEMBL document CHEMBL1133979, “1,2,4-triazolo[3,4-a]pyridine as a novel, constrained template for fibrinogen receptor (GPIIb/IIIa) antagonists” (Bioorg Med Chem Lett, 2001)
# Experiments:
# [1] = biological target: T1, Integrin alpha-IIb/beta-3 (Homo sapiens, UniProt P05106+P08514); assay: Inhibition of biotinylated fibrinogen binding to immobilized integrin GPIIb/IIIa; assay type: protein-complex assay
# [2] = Oral bioavailability in dog; assay type: ADME, organism-based, Canis lupus familiaris; details: in vivo
# Canis familiaris = assay: Ex vivo oral duration for maintaining at least 50% inhibition of platelet aggregation induced by adenosine diphosphate after administration at a dose of at 1 mg/kg; assay type: functional, Canis lupus familiaris
# [3] = Half life in dog; assay type: ADME, organism-based, Canis lupus familiaris; details: in vivo
# [4] = biological target: T1, Integrin alpha-IIb/beta-3; assay: Inhibition of thrombin-induced human gel-filtered platelet aggregation at 50 uM; NA= Inactive; assay type: functional
# T1 sequence (P05106 27-788 limits assumed): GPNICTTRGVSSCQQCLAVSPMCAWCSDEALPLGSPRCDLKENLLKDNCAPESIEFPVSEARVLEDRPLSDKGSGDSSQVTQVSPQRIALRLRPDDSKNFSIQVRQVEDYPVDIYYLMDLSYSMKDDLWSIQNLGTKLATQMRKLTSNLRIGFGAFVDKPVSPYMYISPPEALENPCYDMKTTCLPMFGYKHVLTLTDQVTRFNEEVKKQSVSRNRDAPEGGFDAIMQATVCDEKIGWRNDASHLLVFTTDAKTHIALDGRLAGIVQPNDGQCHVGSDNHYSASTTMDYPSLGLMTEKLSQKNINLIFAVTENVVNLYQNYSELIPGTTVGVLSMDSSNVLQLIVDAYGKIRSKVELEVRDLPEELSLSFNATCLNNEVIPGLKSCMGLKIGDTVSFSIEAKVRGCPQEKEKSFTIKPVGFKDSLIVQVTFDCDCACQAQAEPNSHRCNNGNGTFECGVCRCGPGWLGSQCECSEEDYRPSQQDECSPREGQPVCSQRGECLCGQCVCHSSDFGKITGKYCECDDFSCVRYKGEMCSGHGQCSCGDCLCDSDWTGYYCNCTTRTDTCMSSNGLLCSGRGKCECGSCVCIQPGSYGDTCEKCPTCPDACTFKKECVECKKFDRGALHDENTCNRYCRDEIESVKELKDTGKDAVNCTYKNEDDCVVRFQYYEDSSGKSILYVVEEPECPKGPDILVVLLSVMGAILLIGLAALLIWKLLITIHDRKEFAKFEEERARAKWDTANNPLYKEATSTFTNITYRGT
# T1 sequence (P08514 32-887 limits assumed): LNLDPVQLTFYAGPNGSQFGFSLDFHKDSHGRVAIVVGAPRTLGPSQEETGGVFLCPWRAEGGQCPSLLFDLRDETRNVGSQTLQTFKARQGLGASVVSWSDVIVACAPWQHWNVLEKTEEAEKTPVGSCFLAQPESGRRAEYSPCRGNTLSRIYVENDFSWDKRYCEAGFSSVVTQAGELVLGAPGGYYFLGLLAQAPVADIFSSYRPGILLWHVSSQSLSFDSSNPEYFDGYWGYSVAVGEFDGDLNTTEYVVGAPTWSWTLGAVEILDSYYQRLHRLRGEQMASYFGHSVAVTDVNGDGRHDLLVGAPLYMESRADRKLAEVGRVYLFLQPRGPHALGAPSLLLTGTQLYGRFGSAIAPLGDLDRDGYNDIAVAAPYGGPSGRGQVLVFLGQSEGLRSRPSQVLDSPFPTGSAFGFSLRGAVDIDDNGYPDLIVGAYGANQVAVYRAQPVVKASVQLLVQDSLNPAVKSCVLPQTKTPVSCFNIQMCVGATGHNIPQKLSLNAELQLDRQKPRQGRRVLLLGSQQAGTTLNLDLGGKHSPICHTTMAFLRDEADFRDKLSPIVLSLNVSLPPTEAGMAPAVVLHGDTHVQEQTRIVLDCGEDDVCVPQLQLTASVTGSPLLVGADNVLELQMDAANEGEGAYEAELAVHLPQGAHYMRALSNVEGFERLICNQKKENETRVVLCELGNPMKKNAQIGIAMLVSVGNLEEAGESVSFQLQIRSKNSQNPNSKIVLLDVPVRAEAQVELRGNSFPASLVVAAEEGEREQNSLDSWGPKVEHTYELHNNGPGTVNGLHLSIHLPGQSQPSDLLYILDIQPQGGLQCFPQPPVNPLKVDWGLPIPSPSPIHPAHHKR
# T1 sequence (P08514 891-1039 limits assumed): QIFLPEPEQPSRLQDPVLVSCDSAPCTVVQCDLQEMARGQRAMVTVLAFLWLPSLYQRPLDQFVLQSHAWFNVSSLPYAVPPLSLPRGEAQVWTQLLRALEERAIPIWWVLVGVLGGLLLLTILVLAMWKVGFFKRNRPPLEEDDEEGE
IC50 [1] [nM],SMILES,Oral duration (Canis familiaris) [h],further results
4.2,O=C(O)C[C@H](NC(=O)c1cccn2c(CCC3CCNCC3)nnc12)c1cccnc1,,
0.36,O=C(O)C[C@H](NC(=O)[C@@H]1CCCN(C(=O)CCC2CCNCC2)C1)c1cccnc1 [ELAROFIBAN],5,bioavailability ([2]; read-out: Bioavailabiility): 16%; half-life [3]: 5 h
0.53,O=C(O)C[C@H](NC(=O)C1CCCn2c(CCC3CCNCC3)nnc21)c1cccnc1 (stereo not given in full),3,

# Further lines, the compound ahead of its results:
SMILES,IC50 [1] [nM],Oral duration (Canis familiaris) [h],further results
O=C(O)C[C@H](NC(=O)C1CCCn2c(/C=C/C3CCNCC3)nnc21)c1cccnc1 (stereo not given in full),0.21,>6,bioavailability [2]: 31%
O=C(N[C@@H](CNC(=O)C1CCCn2c(CCC3CCNCC3)nnc21)C(=O)O)OCc1ccccc1 (stereo not given in full),,4,
CC1(C(=O)NC[C@H](NC(=O)OCc2ccccc2)C(=O)O)CCCn2c(CCC3CCNCC3)nnc21 (stereo not given in full),,<0.5,
O=C(O)C[C@H](NC(=O)c1cccn2c(/C=C/C3CCNCC3)nnc12)c1cccnc1,,,IC50 [4]: Not Active
O=C(NC[C@H](NS(=O)(=O)Cc1ccccc1)C(=O)O)C1CCCn2c(/C=C/C3CCNCC3)nnc21 (stereo not given in full),,<0.5,
O=C(O)C[C@H](NC(=O)C1CCCn2c(/C=C/C3CCNCC3)nnc21)c1cnc2ccccc2c1 (stereo not given in full),,4.5,
O=C(N[C@@H](CNC(=O)[C@@H]1CCCN(C(=O)CCC2CCNCC2)C1)C(=O)O)OCc1ccccc1,0.17,3,
O=C(N[C@@H](CNC(=O)C1CCCn2c(/C=C/C3CCNCC3)nnc21)C(=O)O)OCc1ccccc1 (stereo not given in full),0.32,>6,bioavailability [2]: 23%
